This note sets out measurements from patent publication US20220273562A1, “HYDROPHOBICALLY ASSOCIATING POLYMER COUNTER ION PAIR COMPLEXES” (MALVERN COSMECEUTICS LIMITED, priority 2019, published 2022).

Counter-ions that a name gives are not always drawn.

Data set [1] in a line: Stability of the mixtures after 2-4 mths at 4° C. Also noted: key to Stability* After 2-4 mths + at 4° C.: S-stable; PS—partially stable; NS—not stable. The data set is classed as physicochemical.
Data set [2] can be described thus: Ability of polymer counter ion pair to solubilise lipid: visual clarity of polymer counter ion/PL mixtures as pH is adjusted. The note with it: for ion pairing with SMA 1:1 leading to formation of SMA/PL macromolecular assemblies: hydrochloride salts as cationic counter ions.
Where [3] appears, read: SMA 1:1 50 mg, DLPC 20 mg, 2 ml, amine HCl: isopentylamine 3 mg, isobutylamine 9 mg, tyramine 5-6 mg, diphenhydramine 2.5-4 mg, phenylalanine ethyl ester 10 mg, tolazoline 5 mg, naphazoline 8 mg total.
[4] abbreviates: SMA 1:1 50 mg, DLPC 20 mg (2.5:1), 2 ml, amine HCl [% w/w]: isopentylamine 3 mg [0.15], isobutylamine 9 mg [0.45] (clears on standing 3 days), tyramine 5-6 mg [0.25-0.3], diphenhydramine 2.5-4 mg [0.13-0.2], phenylalanine ethyl ester 10 mg [0.5], tolazoline 5 mg [0.25], naphazoline 5 mg, start pH 7 or 8.
Where [5] appears, read: SMA 1:1 50 mg, DLPC 20 mg, 2 ml, phenylalanine ethyl ester 'Cleared,', tolazoline 'Remains clear overnight,', naphazoline 'Virtually clear'.
The mark [6] stands for this setting: SMA 1:1 50 mg, DLPC 20 mg, 2 ml, naphazoline HCl further 3 mg, 8 mg [0.4% w/w] total.

As for `CC(C)CN` [Isobutylamine], the “Stability, appearance in words” value in data set [1] (Poly(methacrylic acid) sodium 4-6k 50 mg, DLPC 10 mg, isobutyl amine HCl 10 mg [0.5% w/w]) is “Clear”; in data set [1] (Poly(methacrylic acid) sodium 4-6k 50 mg, DLPC 10 mg, isobutyl amine HCl 24 mg then 36 mg total, printed 'Clear overnight few white ppt particles') it was “Clear”. In addition, in data set [1] (setting [3]), the “Stability* After 2-4 mths + at 4° C.” value was “S”. The “pH for clear sample” value in data set [2] (Poly(maleic acid) 50 mg, DLPC 2 mg (25:1), isobutyl amine HCl further 5 mg, 20 mg [1.0% w/w] total, printed 'No clearing.') is given as “No”; in data set [2] (Poly(maleic acid) 50 mg, DLPC 2 mg, isobutyl amine HCl further 5 mg, 25 mg [1.25% w/w] total, at pH 8, printed '8, No clearing.') it was 8, No; in data set [2] (Poly(maleic acid) 50 mg, DLPC further 2, total 4 mg (12.5:1), isobutyl amine HCl 25 mg, complete clearing, fine white flecks), 3, Complete; in data set [2] (Poly(maleic acid) ex PolyS 50 mg, 2 ml, start pH 8, isobutyl amine HCl 15 mg [0.75% w/w], no DLPC entered in this line), 7; in data set [2] (Poly(methacrylic acid) sodium 4-6k 50 mg, DLPC 10 mg, isobutyl amine HCl 24 mg [1.2% w/w] total) it was “ppt, 5”; in data set [2] (setting [4]) it was 8, clears. Further, the “pH at which ppt forms” value in data set [2] (Poly(maleic acid) 50 mg, DLPC total 4 mg (12.5:1), isobutyl amine HCl 25 mg) is 4 ppt; in data set [2] (Poly(methacrylic acid) sodium 4-6k 50 mg, DLPC 10 mg (5:1), 2 ml, start pH 6, isobutyl amine HCl 10 mg [0.5% w/w]), 4, ppt. In data set [2] (Poly(methacrylic acid) sodium 4-6k 50 mg, DLPC 10 mg, isobutyl amine HCl 36 mg [1.8% w/w] total), the “pH at which slight clouding occurs” value is listed as 5, slight.

As for `CN(C)CCCC1c2ccccc2CCc2ccccc21` [amitryptyline hydrochloride, reference compound], the “ion pairing with SMA 1:1 leading to formation of SMA/PL macromolecular assemblies” value (from here on “ion pairing with SMA 1:1 leading”) in data set [2] is given as “only partially formed”.

Take `c1ccc2c(CC3=NCCN3)cccc2c1` [Naphazoline, naphazoline hydrochloride, reference compound]: the “Stability* After 2-4 mths + at 4° C.” value in data set [1] (setting [3]) is “PS”. The “Stability, appearance in words” value in data set [1] (setting [5]) was “clear”. The “pH for clear sample” value in data set [2] (setting [4]) is 8, Clear. Further, in data set [2] (setting [6]), the “pH at which sample is cloudy” value is “Cloudy 7,” and the “pH for clear sample” value is listed as “Clear 8-9”. In addition, in data set [2], the “ion pairing with SMA 1:1 leading” value is on record as “can also surprisingly be used as ion pairs”.

`NCCc1ccc(O)cc1` [Tyramine, tyramine]: in data set [1] (setting [3]), the “Stability* After 2-4 mths + at 4° C.” value was “S”. Further, the “ion pairing with SMA 1:1 leading” value in data set [2] was “can also surprisingly be used as ion pairs”.

Take `Nc1ccc(C(=O)O)cc1` [4-amino benzoic acid (PABA), 4-amino benzoic acid]: the “ion pairing with SMA 1:1 leading” value in data set [2] is “failed”.

With `COc1cc(C(O)CN)ccc1O` (stereo not drawn) [normetanephrine], the “ion pairing with SMA 1:1 leading” value in data set [2] is listed as “failed”.

Take `CCOC(=O)c1ccc(N)cc1` [benzocaine, reference compound]: the “ion pairing with SMA 1:1 leading” value in data set [2] was “failed”.

`N[C@@H](Cc1ccc(O)c(O)c1)C(=O)O` [L-dopa, reference compound]: the “ion pairing with SMA 1:1 leading” value in data set [2] was “failed”.

As to `Cl.NCCc1ccccc1` [PEA, 2-Phenylethylamine hydrochloride], the “Stability* After 2-4 mths + at 4° C.” value in data set [1] (SMA 1:1 40 mg, DLPC 20 mg, 1.6 ml, PEA HCl 4.4 mg [0.25% w/w]) was “NS”; in data set [1] (SMA 1:1 50 mg, DLPC 25 mg, 2 ml, PEA HCl 40 mg [2% w/w]), “PS”. Also, the “collapse pH” value in data set [2] (2% PEA added to a 2.5% solution of 1:1 SMA) is on record as 8-9. In addition, the “pH for clear sample” value is listed as 7, Clear in data set [2] (SMA 1:1 40 mg, DLPC 20 mg (2:1), final vol 1.6 ml, PEA HCl 4.4 mg [0.25% w/w]); 10, Clear in data set [2] (SMA 1:1 40 mg, DLPC 20 mg, final vol 1.64 ml, further 2.9 mg PEA HCl, 7.3 mg [0.45% w/w] total); 8.5 clear in data set [2] (SMA 1:1 50 mg, DLPC 25 mg (2:1), final vol 2 ml, PEA HCl 40 mg [2% w/w]); 9 clear in data set [2] (SMA 2:1 50 mg, DLPC 25 mg (polymer:lipid 2:1), final vol 2 ml, PEA HCl 40 mg [2% w/w]). Further, the “pH over which the polymer collapses to interact with phospholipid” value is recorded as 8.5 in data set [2] (ratio SMA(1:1):PEA 5:4) and 7.0 in data set [2] (ratio SMA(1:1):PEA 9:1).

Regarding `CC(C)CCN` [Isopentylamine, Isopentyl amine], the “Stability* After 2-4 mths + at 4° C.” value in data set [1] (setting [3]) is “NS”. The “pH for clear sample” value in data set [2] (setting [4]) is 7, Clear.

With `NCC(O)c1ccc(O)cc1` (stereo not drawn) [octopamine], the “ion pairing with SMA 1:1 leading” value in data set [2] is “failed”.

On to `NC[C@H](O)c1ccc(O)c(O)c1` [L-norepinephrine, reference compound], for which the “ion pairing with SMA 1:1 leading” value in data set [2] is given as “failed”.

As for `CCOC(=O)[C@@H](N)Cc1ccccc1.Cl` [Phenylalanine ethyl ester, L-phenylalanine ethyl ester hydrochloride], in data set [1] (setting [3]), the “Stability* After 2-4 mths + at 4° C.” value is listed as “PS”. The “Stability, appearance in words” value in data set [1] (setting [5]) is reported as “Cleared,”. For the same compound, the “pH for clear sample” value in data set [2] (setting [4]) is 8, Clears.

`NCCc1ccc(O)c(O)c1` [dopamine, reference compound]: the “ion pairing with SMA 1:1 leading” value in data set [2] was “failed”.

Consider `c1ccc(CC2=NCCN2)cc1` [2-Benzyl-2-imidazoline (tolazoline), 2-benzyl-2-imidazoline, reference compound], for which the “Stability* After 2-4 mths + at 4° C.” value in data set [1] (setting [3]) is given as “S”. Moreover, the “Stability, appearance in words” value in data set [1] (setting [5]) is “clear”. Further, the “pH for clear sample” value in data set [2] (Poly(methacrylic acid) sodium 4-6k 50 mg (preformed PMA + Bz), DLPC 10 mg (5:1), 2 ml, start pH 7-8, tolazoline HCl 22 mg [1.1% w/w], printed 'ppt & clear') is 6, ppt &; in data set [2] (setting [4]) it was 7-8,. Also, the “collapse pK of the 1:1 SMA polymer when associating with PL” value in data set [2] (imidazoline counter ion in place of a primary amine) is roughly 7.

As to `CN(C)CCOC(c1ccccc1)c1ccccc1` [Diphenhydramine, diphenhydramine hydrochloride, reference compound], the “pH at which ppt forms” value in data set [2] (SMA 1:1 50 mg, DLPC 20 mg, 2 ml, diphenhydramine HCl 2.5-4 mg [0.13-0.2% w/w]) was “ppt 6”.
